Measured values taken from US20050060764A1, “Mouse model for bone metabolism” (priority 2003, published 2005).
Strand notation (5' to 3'): a small letter for the sugar, then the base; units joined by * are phosphorothioate-linked, units joined directly phosphodiester-linked; [ ] holds rarer units or linkages, { } end groups; capitals alone tell only the bases. e = 2'-O-(2-methoxyethyl) (MOE); [5mC] = 5-methylcytosine; d = 2'-deoxy (DNA)

Experiments:
[1] = test system: RANK mRNA; assay: RANK mRNA expression in mouse proximal tibia after antisense oligonucleotide treatment and PTH infusion: dose response and delivery method (Table 12); format: in vivo; conditions: then 24 h PTH
Experimental: In accordance with the present invention, ISIS 181071 was evaluated for its ability to inhibit RANK expression and PTH-induced serum calcium concentration increase following 18 days of oligonucleotide treatment.
Female Swiss-Webster mice (5-8 wks old), fed a low-calcium diet, were treated for 18 days with ISIS 181071 (SEQ ID NO: 356) at different doses and through different delivery methods. The dose of oligonucleotide was either 30 mg/kg, 20 mg/kg, 10 mg/kg, 3 mg/kg, or 0.1 mg/kg administered by daily subcutaneous injections for the first five days, followed by mini-pump infusion for the remaining 13 days, or the dose was 10 mg/kg or 30 mg/kg administered daily by subcutaneous injection for the entire 18 day period. After 18 days of treatment with oligonucleotides, the mice were infused with PTH by subcutaneously implanted mini-pumps at a dose of 1 ug/100 g/6 hr. A group of control mice received saline, calcitonin (400 ng) plus PTH (1 ug/100 g/6 hr) or PTH alone (1 ug/100 g/6 hr). After 24 hours of PTH infusion (total PTH delivery of 4ug/100 g), the mice were sacrificed and measurements were made of serum calcium with the Sigma Diagnostics Calcium Kit (Sigma-Aldrich) and RANK mRNA expression in proximal tibia (as described in other examples herein). The results are shown in Table 12 are normalized to PTH treatment alone and are the average of four mice per group.

[2] = test system: RANK mRNA; assay: RANK mRNA expression in mouse bone marrow after antisense oligonucleotide treatment and PTH infusion: time course (Table 13); format: in vivo; conditions: then 24 h PTH
Experimental: (§1) Female Swiss-Webster mice (5-8 wks old) were fed a low-calcium diet and received daily subcutaneous injections of 30 mg/kg of ISIS 181071 (SEQ ID NO: 356) for 2, 3, 5, 7, 10, 14, or 21 days. At the end of the oligonucleotide treatment period, mice were infused with PTH by subcutaneously implanted mini-pumps at a dose of 1 ug/100 g/6 hr. A group of control mice were dosed with either saline, PTH alone (1 ug/100 g/6 hr) or calcitonin (400 ug) plus PTH (1 ug/100 g/6 hr). Following 24 hours of PTH infusion (total PTH delivery of 4ug/100 g), the mice were sacrificed and measurements were made of serum calcium with the Sigma Diagnostics Calcium Kit (Sigma-Aldrich) and RANK mRNA expression in the proximal tibia (as described in other examples herein). Percent RANK mRNA inhibition is normalized to PTH alone treatment.

[3] = Serum calcium after RANK antisense oligonucleotide treatment and PTH infusion: time course (Table 13); format: in vivo, mouse; conditions: for Serum calcium concentration: then 24 h PTH
Experimental: In accordance with the present invention, ISIS 181071 was administered to mice for different time periods to evaluate its ability to inhibit RANK expression and PTH-induced serum calcium concentration increase as a function of oligonucleotide treatment time.
as §1

[4] = test system: RANKL mRNA; assay: Short-term bone resorption model: RANKL mRNA expression in proximal tibia after PTH infusion (Table 6); format: in vivo, mouse; conditions: mice infused with PTH 1 ug/100 g/6 hr
From the text: Probes and primers to mouse RANKL were designed to hybridize to a mouse RANKL sequence, using published sequence information (GenBank accession number AF013170.1, incorporated herein as SEQ ID NO:ll). For mouse RANKL the PCR primers were: • forward primer: […] (SEQ ID NO:12) • reverse primer: […] (SEQ ID NO: 13) and • the PCR probe was: FAM-[…]-TAMRA (SEQ ID NO: 14) where FAM is the fluorescent reporter dye and TAMRA is the quencher dye. For mouse GAPDH the PCR primers were: • forward primer: […](SEQ ID NO:15) • reverse primer: […](SEQ ID NO:16) and the • PCR probe was: 5′ JOE-[…]-TAMRA 3′ (SEQ ID NO: 17) where JOE is the fluorescent reporter dye and TAMRA is the quencher dye.
Parathyroidectomized rats are a well-established, short-term model of bone resorption and are useful in the investigation of antiresorptive agents. However, it is difficult to surgically remove only the parathyroid gland of rodents, and the inadvertent removal of the adjacent thyroid gland often has effects on thyroid hormone levels that introduce into the experiment an undesirable level of variability. Continuous infusion of parathyroid hormone (PTH) into intact, young (6-9 weeks old) mice reproduces the short-term bone resorption activity seen in parathyroidectomized rodents and is thus a useful, non-invasive model for the study of antiresorptive agents. The PTH infusion activates bone osteoclasts and causes them to degrade bone matrix, with a resulting rise in serum calcium. In accordance with the present invention, a short-term mouse model of bone resorption was developed and used to evaluate the effects of PTH infusion on serum calcium concentration and RANKL mRNA levels.
Female, Swiss-Webster mice (5-8 weeks old) were placed on a low calcium diet and implanted with mini-pumps delivering PTH continuously. The pumps were calibrated to deliver 1 ug PTH per 100 g bodyweight per 6 hour time period (1 ug/100 g/6 hr). […] The data are expressed as percent increase relative to no PTH treatment.

TCCTCGAGAGGTCTCCTTGC (antisense eT*e[5mC]*e[5mC]*eT*e[5mC]*dG*dA*dG*dA*dG*dG*dT*d[5mC]*dT*d[5mC]*e[5mC]*eT*eT*eG*e[5mC]) [ISIS 181071, 2′-MOE gapmer antisense oligonucleotide targeted to mouse RANK]
RANK mRNA % inhibition (normalized to PTH) ([1]; 0.1 mg/kg, injection 5 days then infusion 13 days): 19%
RANK mRNA % inhibition (normalized to PTH) ([1]; 3 mg/kg, injection 5 days then infusion 13 days): 5%
RANK mRNA % inhibition (normalized to PTH) ([1]; 10 mg/kg daily subcutaneous injection 18 days): 29%
RANK mRNA % inhibition (normalized to PTH) ([1]; 10 mg/kg, injection 5 days then infusion 13 days): 23%
RANK mRNA % inhibition (normalized to PTH) ([1]; 20 mg/kg, injection 5 days then infusion 13 days): 33%
RANK mRNA % inhibition (normalized to PTH) ([1]; 30 mg/kg daily subcutaneous injection 18 days): 30%
RANK mRNA % inhibition (normalized to PTH) ([1]; 30 mg/kg, injection 5 days then infusion 13 days): 32%
RANK mRNA % inhibition (normalized to PTH) Bone Marrow ([2]; 30 mg/kg daily sc for 2 days): 0%
RANK mRNA % inhibition (normalized to PTH) Bone Marrow ([2]; 30 mg/kg daily sc for 3 days): 35%
RANK mRNA % inhibition (normalized to PTH) Bone Marrow ([2]; 30 mg/kg daily sc for 5 days): 32%
RANK mRNA % inhibition (normalized to PTH) Bone Marrow ([2]; 30 mg/kg daily sc for 7 days): 44%
RANK mRNA % inhibition (normalized to PTH) Bone Marrow ([2]; 30 mg/kg daily sc for 10 days): 18%
RANK mRNA % inhibition (normalized to PTH) Bone Marrow ([2]; 30 mg/kg daily sc for 14 days): 36%
RANK mRNA % inhibition (normalized to PTH) Bone Marrow ([2]; 30 mg/kg daily sc for 21 days): 8%
Serum calcium concentration ([3]; 30 mg/kg daily sc for 2 days): 20 mg/dL
Serum calcium concentration ([3]; 30 mg/kg daily sc for 3 days): 17 mg/dL
Serum calcium concentration ([3]; 30 mg/kg daily sc for 5 days): 16 mg/dL
Serum calcium concentration ([3]; 30 mg/kg daily sc for 7 days): 16 mg/dL
Serum calcium concentration ([3]; 30 mg/kg daily sc for 10 days): 18 mg/dL
Serum calcium concentration ([3]; 30 mg/kg daily sc for 14 days): 15 mg/dL
Serum calcium concentration ([3]; 30 mg/kg daily sc for 21 days): 15 mg/dL
PTH-induced increase in serum calcium concentration ([3]; mice, 30 mg/kg daily s.c. for 2, 3, 5, 7, 10, 14, or 21 days, 24 hours PTH infusion): lessens the PTH-induced increase in serum calcium concentration

B1: parathyroid hormone (peptide, UniProt P01270 32-115, looked up)
Parathyroid hormone: SVSEIQLMHNLGKHLNSMERVEWLRKKLQDVHNFVALGAPLAPRDAGSQRPRKKEDNVLVESHEKSLGEADKADVNVLTKAKSQ
notes: parathyroid hormone infused to induce bone resorption in the mouse model
RANKL mRNA % control ([4]; 12 hours): 242 % control
RANKL mRNA % control ([4]; 18 hours): 117 % control
RANKL mRNA % control ([4]; 24 hours (4 ug/100 g)): 205 % control
